Assay results: US11135234B2, “Effective aminoglycoside antibiotic for multidrug-resistant bacteria” (MICROBIAL CHEMISTRY RESEARCH FOUNDATION, priority 2015, dated 2021)
In brackets after ≈: the same amount, converted by molar mass.

Legend:
[1] = test system: S. marcescens TH-0447; test: MIC, agar plate dilution method, S. marcescens TH-0447; type: cell-based, Serratia marcescens; settings: for minimal inhibitory concentration (MIC): S. marcescens TH-0447, AMK-resistant; for MIC: Serratia marcescens, TH0447, S. marcescens TH-0447, AMK-resistant, read-out: minimal inhibitory concentration (MIC)
Procedure, shortened: (§1)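 Strains were tested on agar plates containing diluted compound, and the MIC (μg/mL) was recorded according to the Japan Society of Chemotherapy protocol.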

[2] = test system: P. aeruginosa PAO1; test: MIC, agar plate dilution method, P. aeruginosa PAO1; type: cell-based, Pseudomonas aeruginosa; settings: for minimal inhibitory concentration (MIC): P. aeruginosa PAO1, Sensitive bacterium; for MIC: Pseudomonas aeruginosa, PAO1, P. aeruginosa PAO1, Sensitive bacterium, read-out: minimal inhibitory concentration (MIC)
Procedure, shortened: as §1

[3] = test system: P. aeruginosa MSC17707; test: MIC, agar plate dilution method, P. aeruginosa MSC17707; type: cell-based, Pseudomonas aeruginosa; settings: for minimal inhibitory concentration (MIC): P. aeruginosa MSC17707, AMK-resistant; for MIC: Pseudomonas aeruginosa, MSC17707, P. aeruginosa MSC17707, AMK-resistant, read-out: minimal inhibitory concentration (MIC)
Procedure, shortened: as §1

[4] = test system: E. faecium ATCC19434; test: MIC, agar plate dilution method, E. faecium ATCC19434; type: cell-based, Enterococcus faecium; settings: for minimal inhibitory concentration (MIC): E. faecium ATCC19434; for MIC: Enterococcus faecium, ATCC19434, E. faecium ATCC19434, read-out: minimal inhibitory concentration (MIC)
Procedure, shortened: as §1

[5] = test system: S. marcescens GN6944; test: MIC, agar plate dilution method, S. marcescens GN6944; type: cell-based, Serratia marcescens; settings: S. marcescens GN6944, GM-resistant; for MIC: Serratia marcescens, read-out: minimal inhibitory concentration (MIC)
Procedure, shortened: as §1

[6] = test system: A. baumannii ATCC BAA-1710; test: MIC, agar plate dilution method, A. baumannii ATCC BAA-1710; type: cell-based, Acinetobacter baumannii; settings: for minimal inhibitory concentration (MIC): A. baumannii ATCC BAA-1710, MDRA; for MIC: Acinetobacter baumannii, ATCCBAA1710, A. baumannii ATCC BAA-1710, MDRA, read-out: minimal inhibitory concentration (MIC)
Procedure, shortened: as §1

[7] = test system: S. aureus RN4220/pMS520; test: MIC, agar plate dilution method, S. aureus RN4220/pMS520; type: cell-based, Staphylococcus aureus; settings: for minimal inhibitory concentration (MIC): S. aureus RN4220/pMS520, MRSA; for MIC: Staphylococcus aureus, MRSA, read-out: minimal inhibitory concentration (MIC), S. aureus RN4220/pMS520, MRSA
Procedure, shortened: as §1

[8] = test system: K. pneumoniae ATCC BAA-1705; test: MIC, agar plate dilution method, K. pneumoniae ATCC BAA-1705; type: cell-based, Klebsiella pneumoniae; settings: for minimal inhibitory concentration (MIC): K. pneumoniae ATCC BAA-1705, KPC-producing strain; for MIC: Klebsiella pneumoniae, ATCCBAA1705, K. pneumoniae ATCC BAA-1705, KPC-producing strain, read-out: minimal inhibitory concentration (MIC)
Procedure, shortened: as §1

[9] = test system: P. aeruginosa PAO1/GN315; test: MIC, agar plate dilution method, P. aeruginosa PAO1/GN315; type: cell-based, Pseudomonas aeruginosa; settings: for minimal inhibitory concentration (MIC): P. aeruginosa PAO1/GN315, AMK-resistant; for MIC: Pseudomonas aeruginosa, read-out: minimal inhibitory concentration (MIC), P. aeruginosa PAO1/GN315, AMK-resistant
Procedure, shortened: as §1

[10] = test system: S. aureus RN4220; test: MIC, agar plate dilution method, S. aureus RN4220; type: cell-based, Staphylococcus aureus; settings: for minimal inhibitory concentration (MIC): S. aureus RN4220, Sensitive bacterium; for MIC: Staphylococcus aureus, RN4220, S. aureus RN4220, Sensitive bacterium, read-out: minimal inhibitory concentration (MIC)
Procedure, shortened: as §1

[11] = test system: E. coli JM109/pMW218; test: MIC, agar plate dilution method, E. coli JM109/pMW218; type: cell-based, Escherichia coli; settings: for minimal inhibitory concentration (MIC): E. coli JM109/pMW218, Sensitive bacterium; for MIC: Escherichia coli, JM109/PMW218, E. coli JM109/pMW218, Sensitive bacterium, read-out: minimal inhibitory concentration (MIC)
Procedure, shortened: as §1

[12] = test system: P. aeruginosa MSC01035; test: MIC, agar plate dilution method, P. aeruginosa MSC01035; type: cell-based, Pseudomonas aeruginosa; settings: P. aeruginosa MSC01035, ABK-resistant; for MIC: Pseudomonas aeruginosa, read-out: minimal inhibitory concentration (MIC)
Procedure, shortened: as §1

[13] = test system: S. aureus MF490; test: MIC, agar plate dilution method, S. aureus MF490; type: cell-based, Staphylococcus aureus; settings: for minimal inhibitory concentration (MIC): S. aureus MF490, MRSA; for MIC: Staphylococcus aureus, MRSA, read-out: minimal inhibitory concentration (MIC)
Procedure, shortened: as §1

[14] = test system: K. pneumoniae ATCC BAA-2146; test: MIC, agar plate dilution method, K. pneumoniae ATCC BAA-2146; type: cell-based, Klebsiella pneumoniae; settings: for minimal inhibitory concentration (MIC): K. pneumoniae ATCC BAA-2146, NDM-producing strain; for MIC: Klebsiella pneumoniae, ATCCBAA2146, K. pneumoniae ATCC BAA-2146, NDM-producing strain, read-out: minimal inhibitory concentration (MIC)
Procedure, shortened: as §1

Row | SMILES | minimal inhibitory concentration (MIC) [1] [µg/mL] | minimal inhibitory concentration (MIC) [2] [µg/mL] | minimal inhibitory concentration (MIC) [3] [µg/mL] | minimal inhibitory concentration (MIC) [4] [µg/mL] | minimal inhibitory concentration (MIC) [5] [µg/mL] | minimal inhibitory concentration (MIC) [6] [µg/mL] | MIC [1] [µg/mL] | MIC [2] [µg/mL] | MIC [3] [µg/mL] | MIC [4] [µg/mL] | MIC [5] [µg/mL] | MIC [6] [µg/mL] | MIC [7] [µg/mL] | MIC [8] [µg/mL] | MIC [9] [µg/mL] | MIC [10] [µg/mL] | MIC [11] [µg/mL] | MIC [12] [µg/mL] | MIC [13] [µg/mL] | MIC [14] [µg/mL] | other results
1 | CNC1C(CO)OC(OC2OC3CC(N)C(OC4C(N)CC(N)C(O)C4O)OC3C(O)C2NC)C(O)C1O (stereo not drawn) [Compound A4-a, 4″-N-methylapramycin] | 8 (≈ 14.5 µM) | 8 (≈ 14.5 µM) | 8 (≈ 14.5 µM) | 32 (≈ 57.8 µM) | 8 (≈ 14.5 µM) | 16 (≈ 28.9 µM) |  |  |  |  |  |  |  |  |  |  |  |  |  |  | minimal inhibitory concentration (MIC) [7]: 4 µg/mL (≈ 7.23 µM); minimal inhibitory concentration (MIC) [8]: 2 µg/mL (≈ 3.61 µM); minimal inhibitory concentration (MIC) [9]: 8 µg/mL (≈ 14.5 µM); minimal inhibitory concentration (MIC) [10]: 4 µg/mL (≈ 7.23 µM); minimal inhibitory concentration (MIC) [11]: 2 µg/mL (≈ 3.61 µM); minimal inhibitory concentration (MIC) [12]: 8 µg/mL (≈ 14.5 µM); minimal inhibitory concentration (MIC) [13]: 16 µg/mL (≈ 28.9 µM); minimal inhibitory concentration (MIC) [14]: 2 µg/mL (≈ 3.61 µM)
2 | CNC1C(OC2OC(CO)C(N)C(O)C2O)OC2CC(N)C(OC3C(N)CC(N)CC3N)OC2C1O (stereo not drawn) [Compound C11, 5-amino-5,6-dideoxyapramycin] | 16 (≈ 30.6 µM) | 16 (≈ 30.6 µM) | 16 (≈ 30.6 µM) | 32 (≈ 61.2 µM) | 16 (≈ 30.6 µM) | 16 (≈ 30.6 µM) |  |  |  |  |  |  |  |  |  |  |  |  |  |  | minimal inhibitory concentration (MIC) [7]: 8 µg/mL (≈ 15.3 µM); minimal inhibitory concentration (MIC) [8]: 4 µg/mL (≈ 7.65 µM); minimal inhibitory concentration (MIC) [9]: 16 µg/mL (≈ 30.6 µM); minimal inhibitory concentration (MIC) [10]: 8 µg/mL (≈ 15.3 µM); minimal inhibitory concentration (MIC) [11]: 2 µg/mL (≈ 3.83 µM); minimal inhibitory concentration (MIC) [12]: 32 µg/mL (≈ 61.2 µM); minimal inhibitory concentration (MIC) [13]: 16 µg/mL (≈ 30.6 µM); minimal inhibitory concentration (MIC) [14]: 4 µg/mL (≈ 7.65 µM)
3 | CNC1C(O[C@H]2OC(CO)[C@@H](NCCN)[C@H](O)C2O)O[C@H]2CC(N)[C@@H](O[C@H]3CC(O)[C@H](N)CC3N)OC2C1O (stereo partly drawn) [Compound S1-b, 4″-N-(2-aminoethyl)-5-deoxyapramycin] |  |  |  |  |  |  | 8 (≈ 14.1 µM) | 4 (≈ 7.06 µM) | 4 (≈ 7.06 µM) | 8 (≈ 14.1 µM) | 4 (≈ 7.06 µM) | 4 (≈ 7.06 µM) | 1 (≈ 1.76 µM) | 1 (≈ 1.76 µM) | 4 (≈ 7.06 µM) | 2 (≈ 3.53 µM) | 0.5 (≈ 0.882 µM) | 4 (≈ 7.06 µM) | 4 (≈ 7.06 µM) | 1 (≈ 1.76 µM) | 
4 | CNC1C(O[C@H]2OC(CO)[C@@H](N)[C@H](O)C2N)O[C@H]2CC(N)[C@@H](O[C@@H]3C(N)C[C@@H](N)C(O)[C@H]3O)OC2C1O (stereo partly drawn) [Compound G7, 2″-amino-2″-deoxy-2″,3″-diepiapramycin] |  |  |  |  |  |  | 8 (≈ 14.9 µM) | 8 (≈ 14.9 µM) | 8 (≈ 14.9 µM) | 16 (≈ 29.7 µM) | 8 (≈ 14.9 µM) | 8 (≈ 14.9 µM) | 8 (≈ 14.9 µM) | 2 (≈ 3.71 µM) | 8 (≈ 14.9 µM) | 4 (≈ 7.43 µM) | 1 (≈ 1.86 µM) | 16 (≈ 29.7 µM) | 16 (≈ 29.7 µM) | 4 (≈ 7.43 µM) | 
5 | CNC1C(O[C@H]2OC(CO)[C@@H](NC(=N)N)[C@H](O)C2O)O[C@H]2CC(N)[C@@H](O[C@@H]3C(N)C[C@@H](N)C[C@H]3O)OC2C1O (stereo partly drawn) [Compound S1-o, 4″-deamino-6-deoxy-5-epi-4″-guanidinoapramycin] |  |  |  |  |  |  | 4 (≈ 7.07 µM) | 2 (≈ 3.54 µM) | 4 (≈ 7.07 µM) | 8 (≈ 14.1 µM) | 2 (≈ 3.54 µM) | 4 (≈ 7.07 µM) | 1 (≈ 1.77 µM) | 1 (≈ 1.77 µM) | 4 (≈ 7.07 µM) | 1 (≈ 1.77 µM) | 0.5 (≈ 0.884 µM) | 4 (≈ 7.07 µM) | 2 (≈ 3.54 µM) | 0.5 (≈ 0.884 µM) | 
6 | CNC1C(O[C@H]2OC(CO)[C@@H](NC(=O)CN)[C@H](O)C2O)O[C@H]2C[C@H](N)[C@@H](O[C@@H]3C(N)C[C@@H](N)C[C@H]3O)OC2C1O (stereo partly drawn) [Compound V1-o, 6-deoxy-5-epi-4″-N-glycylapramycin] |  |  |  |  |  |  | 8 (≈ 13.8 µM) | 2 (≈ 3.44 µM) | 2 (≈ 3.44 µM) | 8 (≈ 13.8 µM) | 4 (≈ 6.89 µM) | 4 (≈ 6.89 µM) | 1 (≈ 1.72 µM) | 1 (≈ 1.72 µM) | 2 (≈ 3.44 µM) | 1 (≈ 1.72 µM) | 0.5 (≈ 0.861 µM) | 4 (≈ 6.89 µM) | 4 (≈ 6.89 µM) | 1 (≈ 1.72 µM) | 
